Data published in US9169254B2, “Spiroimidazolone derivative” (Chugai Seiyaku Kabushiki Kaisha, priority 2009, dated 2015).

Molecular target: T1, human PTH1 receptor (Homo sapiens, UniProt Q03431)
T1 sequence (Q03431 27-593): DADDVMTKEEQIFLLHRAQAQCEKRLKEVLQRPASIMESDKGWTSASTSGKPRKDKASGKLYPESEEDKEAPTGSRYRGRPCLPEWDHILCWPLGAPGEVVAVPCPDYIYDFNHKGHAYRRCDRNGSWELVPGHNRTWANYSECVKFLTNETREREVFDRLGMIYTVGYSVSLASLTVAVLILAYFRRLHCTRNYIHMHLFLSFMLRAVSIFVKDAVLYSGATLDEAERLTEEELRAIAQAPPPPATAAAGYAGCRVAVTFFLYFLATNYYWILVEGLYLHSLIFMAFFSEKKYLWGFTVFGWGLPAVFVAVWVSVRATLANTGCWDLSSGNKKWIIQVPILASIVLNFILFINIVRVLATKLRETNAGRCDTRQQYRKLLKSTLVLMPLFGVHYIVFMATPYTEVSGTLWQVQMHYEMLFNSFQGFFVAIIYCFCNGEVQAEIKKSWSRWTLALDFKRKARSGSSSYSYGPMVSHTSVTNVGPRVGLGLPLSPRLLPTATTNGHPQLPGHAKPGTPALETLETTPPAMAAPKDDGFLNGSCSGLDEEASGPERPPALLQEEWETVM
Assay: In vitro cAMP signal activity in HKRK-B7 cells (LLC-PK1 cells overexpressing the human PTH1 receptor)
Assay type: cell-based
Settings: HKRK-B7 cells; compound at 1×10^−3 M; cAMP produced as percentage of that produced by hPTH(1-34) at 100 nM

Compound	cAMP production activity (%)
CCC[C@@H]1CCC[C@H](C2=NC3(CCN(S(=O)(=O)CCc4c(C)cc(N(C)C(N)=O)cc4C)CC3)C(=O)N2)C1 [Compound 1343, 1-(3,5-dimethyl-4-{2-[4-oxo-2-((1S,3R)-3-propyl-cyclohexyl)-1,3,8-triaza-spiro[4.5]dec-1-ene-8-sulfonyl]-ethyl}-phenyl)-1-methyl-urea]	98%
Cc1cc(C(=O)N2CCC(C)(O)CC2)cc(C)c1/C=C/S(=O)(=O)N1CCC2(CC1)N=C(c1ccc(OCCCC(F)(F)C(F)(F)F)c(F)c1)NC2=O [Compound 1207, 2-[3-fluoro-4-(4,4,5,5,5-pentafluoro-pentyloxy)-phenyl]-8-{(E)-2-[4-(4-hydroxy-4-methyl-piperidine-1-carbonyl)-2,6-dimethyl-phenyl]-ethenesulfonyl}-1,3,8-triaza-spiro[4.5]dec-1-en-4-one]	112%
Cc1cc2[nH]ccc2cc1CCS(=O)(=O)N1CCC2(CC1)N=C(C1CCCCC1)NC2=O [Compound 837, 2-cyclohexyl-8-[2-(6-methyl-1H-indol-5-yl)-ethanesulfonyl]-1,3,8-triaza-spiro[4.5]dec-1-en-4-one]	66%
COc1cccc(OC)c1C1=NC2(CCN(S(=O)(=O)CCc3ccc(C(=O)N(C)C)cc3C)CC2)C(=O)N1 [Compound 79, 4-{2-[2-(2,6-dimethoxy-phenyl)-4-oxo-1,3,8-triaza-spiro[4.5]dec-1-ene-8-sulfonyl]-ethyl}-3,N,N-trimethyl-benzamide]	8.2%
Cc1cc(C(=O)N2CCC(C)(O)CC2)cc(C)c1/C=C/[S@TB4](=O)(=O)N1CCC2(CC1)N=C(c1ccc(Cl)c(OC(F)(F)F)c1)NC2=O [Compound 1093, 2-(4-chloro-3-trifluoromethoxy-phenyl)-8-{(E)-2-[4-(4-hydroxy-4-methyl-piperidine-1-carbonyl)-2,6-dimethyl-phenyl]-ethenesulfonyl}-1,3,8-triaza-spiro[4.5]dec-1-en-4-one]	100%
Cc1cc(N2C(=O)N(CCO)C(C)(C)C2=O)cc(C)c1/C=C/S(=O)(=O)N1CCC2(CC1)N=C(c1cccc(OC(F)(F)F)c1)NC2=O [Compound 714, 3-(3,5-dimethyl-4-{(E)-2-[4-oxo-2-(3-trifluoromethoxy-phenyl)-1,3,8-triaza-spiro[4.5]dec-1-ene-8-sulfonyl]-vinyl}-phenyl)-1-(2-hydroxy-ethyl)-5,5-dimethyl-imidazolidine-2,4-dione]	36%
Cc1cc(C(=O)N2CCC(O)(C(F)(F)F)CC2)cc(C)c1/C=C/S(=O)(=O)N1CCC2(CC1)N=C(C1CCCCC1)NC2=O [Compound 1006, 2-Cyclohexyl-8-{(E)-2-[4-(4-hydroxy-4-trifluoromethyl-piperidine-1-carbonyl)-2,6-dimethyl-phenyl]-ethenesulfonyl}-1,3,8-triaza-spiro[4.5]dec-1-en-4-one]	52%
Cc1cc(C(=O)N2CCN(S(=O)(=O)N(C)C)CC2)ccc1CCS(=O)(=O)N1CCC2(CC1)N=C(c1cccc(C(F)(F)F)c1)NC2=O [Compound 360, 4-(3-methyl-4-{2-[4-oxo-2-(3-trifluoromethyl-phenyl)-1,3,8-triaza-spiro[4.5]dec-1-ene-8-sulfonyl]-ethyl}-benzoyl)-piperazine-1-sulfonic acid dimethylamide]	62%
CC(=O)Nc1ccc(CCS(=O)(=O)N2CCC3(CC2)N=C([C@H]2CC[C@@H](CC(F)F)CC2)NC3=O)c(C)c1 [Compound 1071, N-[4-(2-{2-[4-(2,2-difluoro-ethyl)-cyclohexyl]-4-oxo-1,3,8-triaza-spiro[4.5]dec-1-ene-8-sulfonyl}-ethyl)-3-methyl-phenyl]-acetamide]	60%
Cc1cc(C(=O)N(C)CC(N)=O)cc(C)c1/C=C/S(=O)(=O)N1CCC2(CC1)N=C(c1cccc(C(F)(F)F)c1)NC2=O [Compound 392, N-carbamoylmethyl-3,5,N-trimethyl-4-{(E)-2-[4-oxo-2-(3-trifluoromethyl-phenyl)-1,3,8-triaza-spiro[4.5]dec-1-ene-8-sulfonyl]-vinyl}-benzamide]	83%
Cc1cc(C(=O)N(C)C)ccc1CCS(=O)(=O)N1CCC2(CC1)N=C(COc1ccc(F)c(F)c1F)NC2=O [Compound 176, 3,N,N-trimethyl-4-{2-[4-oxo-2-(2,3,4-trifluoro-phenoxymethyl)-1,3,8-triaza-spiro[4.5]dec-1-ene-8-sulfonyl]-ethyl}-benzamide]	74%
Cc1cc(C(=O)N(C)C)ccc1CCS(=O)(=O)N1CCC2(CC1)N=C(c1cccc(OC(F)(F)F)c1)N=C2N(C)C [Compound 899, 4-{2-[4-dimethylamino-2-(3-trifluoromethoxy-phenyl)-1,3,8-triaza-spiro[4.5]deca-1,3-diene-8-sulfonyl]-ethyl}-3,N,N-trimethyl-benzamide]	12%
CC(=O)N(C)c1cc(C)c(CCS(=O)(=O)N2CCC3(CC2)N=C(CCCCCCCCC(F)(F)F)NC3=O)c(C)c1 [Compound 1047, N-(3,5-dimethyl-4-{2-[4-oxo-2-(9,9,9-trifluoro-nonyl)-1,3,8-triaza-spiro[4.5]dec-1-ene-8-sulfonyl]-ethyl}-phenyl)-N-methyl-acetamide]	82%
Cc1cc(C(=O)N2CCC(O)(CF)CC2)cc(C)c1/C=C/S(=O)(=O)N1CCC2(CC1)N=C(c1ccc(OCC(F)(F)F)c(C(F)(F)F)c1)NC2=O [Compound 1248, 8-{(E)-2-[4-(4-fluoromethyl-4-hydroxy-piperidine-1-carbonyl)-2,6-dimethyl-phenyl]-ethenesulfonyl}-2-[4-(2,2,2-trifluoro-ethoxy)-3-trifluoromethyl-phenyl]-1,3,8-triaza-spiro[4.5]dec-1-en-4-one]	81%
Cc1cc(OCCC(O)CO)ccc1/C=C/S(=O)(=O)N1CCC2(CC1)N=C(c1cccc(OC(F)(F)F)c1)NC2=O (centres unmarked) [Compound 531, 8-{(E)-2-[4-(3,4-dihydroxy-butoxy)-2-methyl-phenyl]-ethenesulfonyl}-2-(3-trifluoromethoxy-phenyl)-1,3,8-triaza-spiro[4.5]dec-1-en-4-one]	69%
[2H]C([2H])([2H])N(C(N)=O)c1cc(C)c(CCS(=O)(=O)N2CCC3(CC2)N=C(c2ccc(F)c(C(F)(F)F)c2)NC3=O)c(C)c1 [Compound 1391, 1-(4-{2-[2-(4-fluoro-3-trifluoromethyl-phenyl)-4-oxo-1,3,8-triaza-spiro[4.5]dec-1-ene-8-sulfonyl]-ethyl}-3,5-dimethyl-phenyl)-1-[1,1,1-^2H3]methyl-urea]	116%
Cc1cc(C(=O)N2CCN(C3CCN(C)CC3)CC2)ccc1CCS(=O)(=O)N1CCC2(CC1)N=C(c1cccc(C(F)(F)F)c1)NC2=O [Compound 958]	49%
O=C1NC(C2CCCCC2)=NC12CCN(S(=O)(=O)CCc1csc3ccccc13)CC2 [Compound 319, 8-(2-benzo[b]thiophen-3-yl-ethanesulfonyl)-2-cyclohexyl-1,3,8-triaza-spiro[4.5]dec-1-en-4-one]	31%
Cc1cc(C(=O)N2CCCN2)cc(C)c1/C=C/S(=O)(=O)N1CCC2(CC1)N=C(C1CCC(CCC(F)(F)F)CC1)NC2=O (centres unmarked) [Compound 997, 8-{(E)-2-[2,6-dimethyl-4-(pyrazolidine-1-carbonyl)-phenyl]-ethenesulfonyl}-2-[4-(3,3,3-trifluoro-propyl)-cyclohexyl]-1,3,8-triaza-spiro[4.5]dec-1-en-4-one]	74%
O=C1NC(C2CCCCC2)=NC12CCN(S(=O)(=O)C#Cc1cccc3[nH]ccc13)CC2 [Compound 1377, 2-Cyclohexyl-8-[2-(1H-indol-4-yl)-ethynesulfonyl]-1,3,8-triaza-spiro[4.5]dec-1-en-4-one]	35%
Cc1cc(N(CCO)C(=O)CO)ccc1CCS(=O)(=O)N1CCC2(CC1)N=C(c1cccc(OC(F)(F)F)c1)NC2=O [Compound 930, 2-Hydroxy-N-(2-hydroxy-ethyl)-N-(3-methyl-4-{2-[4-oxo-2-(3-trifluoromethoxy-phenyl)-1,3,8-triaza-spiro[4.5]dec-1-ene-8-sulfonyl]-ethyl}-phenyl)-acetamide]	92%
Cc1cc(N2CCN(CCO)C2=O)ccc1CCS(=O)(=O)N1CCC2(CC1)N=C(c1cccc(C(F)(F)F)c1)NC2=O [Compound 674, 8-(2-{4-[3-(2-Hydroxy-ethyl)-2-oxo-imidazolidin-1-yl]-2-methyl-phenyl}-ethanesulfonyl)-2-(3-trifluoromethyl-phenyl)-1,3,8-triaza-spiro[4.5]dec-1-en-4-one]	68%
Cc1cc(N(C)C(N)=O)cc(C)c1CCS(=O)(=O)N1CCC2(CC1)N=C(C(C)(F)F)NC2=O [Compound 1311, 1-(4-{2-[2-(1,1-difluoro-ethyl)-4-oxo-1,3,8-triaza-spiro[4.5]dec-1-ene-8-sulfonyl]-ethyl}-3,5-dimethyl-phenyl)-1-methyl-urea]	79%
